We go through three molecules from patent US7132505B1, “Polypeptide inhibiting a proton-gated Na+ channel, a nucleic acid coding for such polypeptide and a method of manufacturing an ASIC1a channel blocker” (Centre National de la Recherche Scientifique - CNRS, dated 2006).

The test system of assay [1] is ASIC1a, ASIC1b, ASIC2a, and ASIC3. The conditions noted are these: cited from earlier work.
Assay [2] deals with T1, ASIC1a channel (Rattus norvegicus, UniProt P55926).
T1 sequence (P55926 1-526): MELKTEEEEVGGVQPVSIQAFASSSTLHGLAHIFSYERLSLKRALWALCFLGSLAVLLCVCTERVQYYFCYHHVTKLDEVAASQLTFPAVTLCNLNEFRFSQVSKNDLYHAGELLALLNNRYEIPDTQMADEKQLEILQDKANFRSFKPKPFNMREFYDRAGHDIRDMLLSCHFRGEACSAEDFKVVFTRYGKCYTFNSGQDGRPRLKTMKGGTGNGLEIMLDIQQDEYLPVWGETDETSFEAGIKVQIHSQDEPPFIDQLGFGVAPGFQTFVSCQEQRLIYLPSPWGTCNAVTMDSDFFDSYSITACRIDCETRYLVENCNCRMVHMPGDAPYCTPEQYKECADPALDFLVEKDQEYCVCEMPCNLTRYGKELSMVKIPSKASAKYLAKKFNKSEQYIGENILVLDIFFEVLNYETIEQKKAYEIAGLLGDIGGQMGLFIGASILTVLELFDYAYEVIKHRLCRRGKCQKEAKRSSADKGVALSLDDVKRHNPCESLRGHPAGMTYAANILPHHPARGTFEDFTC
Put plainly: Amiloride block of ASIC1a channel. The settings on record: IC50 10 μM versus 0.9 nM. It is filed as cell-based.

Assay [3] has as its target T1, ASIC1a channel. The settings on record: read-out: IC50 for block of ASIC1a channel; cited from earlier work.
Assay [4] addresses ASIC1a channel (homomultimer).
Assay [5] addresses ASIC1a channel (homomultimer). The source holds these as a separate data set.
The target of assay [6] is T2, native PcTX1-sensitive H+-gated channel of rat dorsal root ganglion neurons (suggested by the filing to be a … (rat, UniProt P55926)).
T2 sequence: T1 sequence (P55926 1-526)
The assay can be described thus: cell-based or functional assay.

No end group written: not given here.

For the molecule `N=C(N)NC(=O)c1nc(Cl)c(N)nc1N` [amiloride], in assay [1], the “block of transient current generated by ASIC1a, ASIC1b, ASIC2a, and ASIC3” value is “blocks all transient expression of current”. Moreover, in assay [2], the “affinity for ASIC1a relative to PcTX1 (fold lower)” value was 10^4. The IC50 in assay [3] is 10 µM.
In turn, “crude Psalmopoeus cambridgei venom (pool or library)” returned an ASIC1a current in Xenopus oocytes in assay [4] of 90%.
Regarding EDCIPKWKGCVNRHGDCCEGLECWKRRRSFEVCVPKTPKT-OH (disulfide (positions not given here)) [Psalmotoxin 1 (PcTX1)], in assay [5], the IC50 of block of the ASIC1a current recorded at pH 6 in Xenopus oocytes turned out to be 0.9 nM. For the same molecule, the “IC50 of inhibition of the H+-gated current in the PcTX1-sensitive population of DRG neurons” value in assay [6] worked out at 0.0007 µM.
